Entries after “also recorded” stand apart in the source; their conditions may differ.
Legend:
AS MSCs = assay: Mineralization of AS MSCs under osteogenic induction (Alizarin red S staining); type: cell-based, human; conditions: 100 μM levamisole, 100 μM beryllium sulfate, or 1 μg/ml pamidronate
Protocol: The same passages (p3 to p5) of AS MSCs and N MSCs were compared.
The first culture condition was osteogenic induction, whereby α-MEM was supplemented with 10% fetal bovine serum (Gibco), 50 μg/mL ascorbate-2 phosphate (Sigma-Aldrich, St. Louis, Mo., USA), 10 nmol/L dexamethasone (Sigma-Aldrich), and 10 mmol/L β-glycerophosphate (Sigma-Aldrich). […] The medium was changed every 3 days. After appearance of the morphologic features of differentiation, cells were fixed with 4% paraformaldehyde. Cells treated by osteogenic culture were stained for Alizarin red S (Sigma-Aldrich) for mineralization. Quantification of Alizarin red S staining was conducted by measurement of the optical density (OD) of extracted dye at 550 nm with a plate reader (Molecular Devices, Sunnyvale, Calif., USA).
After morphological differentiation, cells were subjected to Alizarin red S staining.

[1] = system: NOD-SCID mice implanted with AS MSCs; assay: New bony apposition in NOD-SCID mice implanted with AS MSCs (micro-computed tomography of lumbar spine); type: in vivo; conditions: daily oral administration: levamisole 10 mg/kg, beryllium sulfate 7.5 mg/kg, pamidronate 0.3 mg/kg; micro-CT 3 weeks after implantation
Protocol: The animal experimental protocol was approved by the Animal Care and Utilization Committee of Taipei Tzu Chi General Hospital. NOD-SCID mice (8-10 weeks) were purchased from BioLASCO (Taipei, Taiwan) and maintained in a specific pathogen-free environment. Human MSCs were treated with β-glycerophosphate in culture for 5 days, embedded in fibrin (10^6 cells in 5 μl fibrin) (Baxter, Vienna, Austria) and implanted in areas adjacent to right lamina of lumbar spine segments L4 to L5 in NOD-SCID mice. The lamina of lumbar spine was decorticated using the forceps. Mice were fed with a 0.9% phosphate diet (Dyets, Bethlehem, Pa., USA) after surgery. Micro-computed tomography (SkyScan 1076; Kontich, Belgium) over lumbar spines was undertaken 3 weeks after implantation. Bone mineral density over the femur measured by micro-computed tomography in NOD-SCID mice following implantation with AS MSCs and daily oral administration of H2O levamisole (10 mg/kg), beryllium sulfate tetrahydrate (7.5 mg/kg), or pamidronate (0.3 mg/kg) for 12 weeks. Quantitative volumes of new bony apposition were acquired by Bruker CT-Volume version 2.0 software.

TNAP = target: T1, TNAP (Homo sapiens, UniProt P05186); conditions: from references 22-24; cited from earlier work
T1 sequence (P05186 18-501 limits assumed): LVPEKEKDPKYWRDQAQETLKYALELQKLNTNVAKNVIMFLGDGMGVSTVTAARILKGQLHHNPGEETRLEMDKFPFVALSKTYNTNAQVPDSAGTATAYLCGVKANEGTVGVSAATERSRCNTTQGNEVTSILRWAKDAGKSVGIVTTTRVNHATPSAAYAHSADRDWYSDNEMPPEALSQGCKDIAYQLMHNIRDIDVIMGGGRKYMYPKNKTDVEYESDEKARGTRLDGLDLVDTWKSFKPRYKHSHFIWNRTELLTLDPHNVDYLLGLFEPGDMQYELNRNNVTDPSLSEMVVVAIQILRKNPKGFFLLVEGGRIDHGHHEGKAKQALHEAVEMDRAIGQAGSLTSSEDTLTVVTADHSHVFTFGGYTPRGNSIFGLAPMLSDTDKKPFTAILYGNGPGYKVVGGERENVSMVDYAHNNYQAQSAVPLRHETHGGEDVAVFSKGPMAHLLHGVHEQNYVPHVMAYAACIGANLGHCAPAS

AS patients = conditions: cited from earlier work

In the case of NCCC(O)(P(=O)(O)O)P(=O)(O)O [pamidronate], the “accelerated mineralization in AS MSCs (ARS staining)” value (“accelerated mineralization” for short) (AS MSCs) is listed as “blocked effectively; also recorded: inhibit this abnormal mineralization”, the “new bony apposition induced by AS MSCs” value [1] is listed as “blocked” and the “type of TNAP inhibition” value (TNAP) is listed as “uncompetitive”. For the same molecule, the “serum BAP levels” value (AS patients; one study, reference 34) was “lowering serum BAP levels”.

For O.O.O.O.O=S(=O)([O-])[O-].[Be+2] [beryllium sulfate, BeSO4•4H2O], the “accelerated mineralization” value (AS MSCs) is given as “blocked effectively” and the “type of TNAP inhibition” value (TNAP) is given as “competitive”.

For c1ccc([C@H]2CN3CCSC3=N2)cc1 [levamisole, (6S)-6-phenyl-2H,3H,5H,6H-imidazo[2,1-b][1,3]thiazole], the “accelerated mineralization” value (AS MSCs) is given as “blocked effectively; also recorded: inhibit this abnormal mineralization”, the “new bony apposition induced by AS MSCs” value [1] is given as “blocked” and the “type of TNAP inhibition” value (TNAP) is given as “uncompetitive”. The “inflammation of AS patients” value (AS patients; some studies, references 26-29) was “marginally reduce inflammation”.

Source: patent US20210301318A1, “A BIOMARKER AND TARGET FOR DIAGNOSIS, PROGNOSIS AND TREATMENT OF ANKYLOSING SPONDYLITIS” (priority 2018, published 2021)
